Tests used:
Type in all cases: in vivo
[1] = tested on: Setaria faberi (SETFA); assay: Example B post-emergence herbicidal activity, glasshouse pot test; conditions: 312 h, rate 250 g/ha, evaluated after 13 days, read-out: Post-emergence activity SETFA (100=total damage to plant; 0=no damage to plant)
Outline: (§1)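 Compound sprayed in acetone/water (50:50) plus 0.5% Tween 20 onto potted soil one day post-sowing, or onto seedlings after 8 days. Scored 0–100 for damage after 13 days.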

[2] = tested on: Echinochloa crus-galli (ECHCG); assay: as above; conditions: 312 h, rate 250 g/ha, evaluated after 13 days, read-out: Post-emergence activity ECHCG (100=total damage to plant; 0=no damage to plant)
Outline: as §1

[3] = tested on: Avena fatua (AVEFA); assay: as above; conditions: 312 h, rate 250 g/ha, evaluated after 13 days, read-out: Post-emergence activity AVEFA (100=total damage to plant; 0=no damage to plant)
Outline: as §1

[4] = tested on: Amaranthus retroflexus (AMARE); assay: as above; conditions: 312 h, rate 250 g/ha, evaluated after 13 days, read-out: Post-emergence activity AMARE (100=total damage to plant; 0=no damage to plant)
Outline: as §1

[5] = tested on: Alopecurus myosuroides (ALOMY); assay: as above; conditions: 312 h, rate 250 g/ha, evaluated after 13 days, read-out: Post-emergence activity ALOMY (100=total damage to plant; 0=no damage to plant)
Outline: as §1

[6] = tested on: Setaria faberi (SETFA); assay: Example B pre-emergence herbicidal activity, glasshouse pot test; conditions: 312 h, rate 250 g/ha, evaluated after 13 days, read-out: Pre-emergence activity SETFA (100=total damage to plant; 0=no damage to plant)
Outline: as §1

[7] = tested on: Echinochloa crus-galli (ECHCG); assay: as above; conditions: 312 h, rate 250 g/ha, evaluated after 13 days, read-out: Pre-emergence activity ECHCG (100=total damage to plant; 0=no damage to plant)
Outline: as §1

[8] = tested on: Avena fatua (AVEFA); assay: as above; conditions: 312 h, rate 250 g/ha, evaluated after 13 days, read-out: Pre-emergence activity AVEFA (100=total damage to plant; 0=no damage to plant)
Outline: as §1

[9] = tested on: Amaranthus retroflexus (AMARE); assay: as above; conditions: 312 h, rate 250 g/ha, evaluated after 13 days, read-out: Pre-emergence activity AMARE (100=total damage to plant; 0=no damage to plant)
Outline: as §1

[10] = tested on: Alopecurus myosuroides (ALOMY); assay: as above; conditions: 312 h, rate 250 g/ha, evaluated after 13 days, read-out: Pre-emergence activity ALOMY (100=total damage to plant; 0=no damage to plant)
Outline: as §1

Structure (SMILES)	pest or weed control at 250 g/ha [1]	pest or weed control at 250 g/ha [2]	pest or weed control at 250 g/ha [3]	pest or weed control at 250 g/ha [4]	pest or weed control at 250 g/ha [5]	pest or weed control at 250 g/ha [6]	pest or weed control at 250 g/ha [7]	pest or weed control at 250 g/ha [8]	pest or weed control at 250 g/ha [9]	pest or weed control at 250 g/ha [10]
CCc1ccc(-c2cnc(Cl)cc2C)cc1C1=C(O)C(C)(C)OC(C)(C)C1=O [Compound A-73]	90%	90%	0%	0%	20%	20%	10%	0%	0%	0%
COc1ccc(-c2ccc(Cl)c(F)c2)cc1C1=C(O)C(C)(C)OC(C)(C)C1=O [Compound A-96]	90%	100%	30%	0%	50%	0%	0%	0%	0%	0%
CCc1ccc(-c2ccc(Cl)c(OC)c2)cc1C1=C(O)C(C)(C)OC(C)(C)C1=O [Compound A-135]	100%	100%	100%	0%	100%	100%	100%	100%	0%	80%
CCc1ccc(-c2ccc(Cl)cc2)cc1C1=C(O)[C@@]2(CC)C=C[C@H](O2)C1=O [Compound A-63]	100%	100%	60%	0%	90%	30%	0%	0%	0%	0%
Cc1cc(C)c(-c2ccc(Cl)c(F)c2)c(C)c1C1=C(O)C(C)(C)OC(C)(C)C1=O [Compound A-97]	70%	90%	30%	0%	40%	60%	50%	0%	0%	0%
CCc1ccc(-c2ccc(OC(F)F)cc2)cc1C1=C(O)C(C)(C)OC(C)(C)C1=O [Compound A-151]	100%	100%	100%	0%	100%	100%	100%	100%	0%	100%
CCOc1ccc(-c2ccc(Cl)cc2Cl)cc1C1=C(O)C(C)(C)OC(C)(C)C1=O [Compound A-87]	80%	80%	0%	0%	10%	0%	0%	0%	0%	0%
Cc1ccc(-c2ccc(Cl)c(F)c2)cc1C1=C(O)C(C)(C)SC(C)(C)C1=O (single isomer, unassigned) [Compound C-9]	10%	70%	40%	0%	50%	0%	0%	0%	0%	0%

— US8680012B2, “4-phenyl-pyrane-3,5-diones,4-phenyl-thiopyrane-3,6-diones and cyclohexanetriones as novel herbicides” (Syngenta Crop Protection LLC, priority 2006, dated 2014)
